Measurements taken from patent US20120282358A1, “ORAL ADMINISTRATION COMPOSITION” (UNITIKA LTD., priority 2007, published 2012).

Tests used:
[1] = tested on: Female mice of KK-Ay/TacJc1 line (diabetes mellitus type II model animal); experiment: Test Example 1-2: KK-Ay mice on high fat feed, 4 weeks; body weight, triglyceride, abdominal white fat tissue weight; assay type: in vivo; conditions: 29th day; in comparison with Comparative Example 1-2 and Comparative Example 1-4; FIG. 9
Description: Female mice of KK-Ay/TacJc1 line (6 weeks of age, manufactured by CLEA Japan Inc.), established as a diabetes mellitus type II model animal, were divided into groups of 6 animals per group, and β-cryptoxanthin (95% in purity, manufactured by SHIKOKU YASHIMA PURE CHEMICALS CO., LTD.) and glucosylceramide (3% in purity, konnyaku ceramide manufactured by UNITIKA, LTD.) were mixed with a high fat feed, at the ratios of 0.2% and 4% respectively, and subjected to free ingestion together with water. As the control group, tests were carried out by providing the mice with a high fat feed (CLEA Rodent Diet Quick Fat, manufactured by CLEA Japan Inc) to which nothing was added (Comparative Example 1-2), the high fat feed to which 0.2% of β-cryptoxanthin alone was added (Comparative Example 1-3) and the high fat feed to which 4% of glucosylceramide alone was added (Comparative Example 1-4).
The administration was carried out for 4 weeks, and body weight and triglyceride content were measured before the administration and on the 7th, 14th, 21st and 28th days after the administration. In addition, the mice were sacrificed on the 29th day after the commencement of administration, and the visceral fats, namely abdominal white fat tissues, were collected and their weights were compared. The results are shown in FIG. 7, FIG. 8 and FIG. 9, respectively.

[2] = Applicant's own test of β-cryptoxanthin alone for obesity prevention / fat reduction; conditions: no details given
[3] = tested on: Female mice of KK-Ay/TacJc1 line (diabetes mellitus type II model animal); experiment: Test Examples 2-1, 2-2, 2-3: KK-Ay mice on high fat feed, 4 weeks; body weight, blood triglyceride, visceral white fat tissue mass; assay type: in vivo; conditions: for mass of visceral fat (abdominal white fat tissue): 29th day after commencement of administration; for mass of visceral fat (abdominal white fat tissue) / triglyceride content in blood: in comparison with control group; for change in body weight / triglyceride content in blood: mixed in high fat feed, 4 weeks; for change in body weight: measured on 7th, 14th, 21st, 28th days, in comparison with control group (high fat feed alone); for triglyceride content in blood: Triglyceride E-test Wako
Protocol: Female mice of KK-Ay/TacJc1 line (6 weeks of age: manufactured by CLEA Japan Inc.), established as a diabetes mellitus type II model animal, were divided into groups of 6 animals per group, and the composition obtained in Example 1 was mixed with a high fat feed at a ratio of 4% and subjected to free ingestion together with water. The high fat feed alone was allowed to be ingested by the control group.
The administration was carried out for 4 weeks, and the body weight was measured before the administration and on the 7th, 14th, 21st and 28th days after the administration.
Simultaneously with the measurement of body weights of the mice used in Test Example 1-1, blood collection was carried out and the triglyceride content in blood was measured using Triglyceride E-test Wako (manufactured by Wako Pure Chemical Industries, Ltd.) The result is shown in FIG. 11.
The mice used in Test Example 2-1 were sacrificed on the 29th day after commencement of the administration, and collection of the visceral fat, namely white fat tissue, was carried out to compare their mass.

Compound	abdominal fat tissue weight [1]	action by individual use (obesity prevention / fat reduction) [2]	mass of visceral fat (abdominal white fat tissue) [3]	change in body weight [3]	triglyceride content in blood [3]
CC1=C(/C=C/C(C)=C/C=C/C(C)=C/C=C/C=C(C)/C=C/C=C(C)/C=C/C2=C(C)C[C@@H](O)CC2(C)C)C(C)(C)CCC1 [Comparative Example 1-3, β-cryptoxanthin]	significantly reduced	–	–	–	–
CC1=C(/C=C/C(C)=C/C=C/C(C)=C/C=C/C=C(C)/C=C/C=C(C)/C=C/C2=C(C)C[C@@H](O)CC2(C)C)C(C)(C)CCC1 [β-cryptoxanthin]	–	weak	–	–	–
CC1=C(/C=C/C(C)=C/C=C/C(C)=C/C=C/C=C(C)/C=C/C=C(C)/C=C/C2=C(C)C[C@@H](O)CC2(C)C)C(C)(C)CCC1 [Comparative Example 3, β-cryptoxanthin]	–	–	significantly reduced	significantly reduced on the 28th day	significantly reduced on the 21st and 28th days
a-glycosylhesperidin [Comparative Example 4]	–	–	reduction of the visceral fat was not found	significant difference was not found	significant difference was not found
